Results from article PMC10933438, “Inhibition of urease-mediated ammonia production by 2-octynohydroxamic acid in hepatic encephalopathy” (Nature Communications, 2024).

Legend:
Jack bean urease [1] = molecular target: T1, Jack bean urease (Canavalia ensiformis, UniProt P07374); experiment: cell-free pH-based (phenol red) urease activity assay; delay of half-maximal absorbance at […] inhibitor (ΔT50); format: biochemical
Jack bean urease [2] = molecular target: T1, Jack bean urease; experiment: cell-free pH-based (phenol red) urease activity assay; ΔT50 at […] inhibitor; format: biochemical

T1 sequence (P07374 whole entry, looked up): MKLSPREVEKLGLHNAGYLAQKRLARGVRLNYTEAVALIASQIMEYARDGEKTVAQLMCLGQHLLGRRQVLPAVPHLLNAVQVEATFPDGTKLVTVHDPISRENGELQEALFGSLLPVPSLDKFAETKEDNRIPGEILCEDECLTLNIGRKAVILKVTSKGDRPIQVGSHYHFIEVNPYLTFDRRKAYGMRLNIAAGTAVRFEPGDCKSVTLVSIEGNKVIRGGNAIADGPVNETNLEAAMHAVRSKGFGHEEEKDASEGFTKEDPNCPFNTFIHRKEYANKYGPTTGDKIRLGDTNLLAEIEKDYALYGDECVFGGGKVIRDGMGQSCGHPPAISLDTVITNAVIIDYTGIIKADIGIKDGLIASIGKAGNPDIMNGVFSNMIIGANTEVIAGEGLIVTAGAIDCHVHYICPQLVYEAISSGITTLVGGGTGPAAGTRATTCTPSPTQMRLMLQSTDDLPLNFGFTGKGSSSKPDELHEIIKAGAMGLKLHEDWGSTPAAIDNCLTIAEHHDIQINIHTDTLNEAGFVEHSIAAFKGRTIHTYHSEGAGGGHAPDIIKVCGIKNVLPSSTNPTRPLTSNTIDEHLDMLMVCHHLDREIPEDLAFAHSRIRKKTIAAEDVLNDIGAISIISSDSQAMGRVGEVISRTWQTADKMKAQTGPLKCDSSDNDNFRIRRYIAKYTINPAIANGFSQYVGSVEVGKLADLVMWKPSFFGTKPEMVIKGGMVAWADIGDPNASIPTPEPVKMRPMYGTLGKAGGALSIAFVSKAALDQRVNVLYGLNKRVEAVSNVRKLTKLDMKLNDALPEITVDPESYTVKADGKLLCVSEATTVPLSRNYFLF

Compound | cell-free pH-based (phenol red) urease activity assay; delay of half-maximal abs (Jack bean urease [1]) [min] | cell-free pH-based (phenol red) urease activity assay; ΔT50 at 0.1 mM inhibitor (Jack bean urease [2]) [min]
CCCCCC#CC(=O)NO [2-octynoHA, 2-octynohydroxamic acid] | 47.9 ± 2.6 | –
CC(=O)NO [AHA, acetohydroxamic acid] | – | 2.8 ± 0.6
CCCCCCCC(=O)NO [OHA, octanohydroxamic acid] | – | 3.0 ± 1.6
